# Measurements reported in US9096536B2, “Asymmetrically substituted anthrapyridazone derivatives as cytostatics” (BS-154 S.P. ZO.O., priority 2011, dated 2015).
# Like-named read-outs stand apart in the source and are kept apart here.
# Legend:
# [1] = tested on: CT-DNA; assay: Interaction with isolated CT-DNA, fluorescence competition with ethidium bromide; assay type: binding; settings: for IC50: 50% decrease in fluorescence intensity of DNA-bromide ethydine complex; for Kapp relative constant of DNA-compound bonding: Kapp = (1.26/C50) × KEtBr, KEtBr = 10^7M
# Description: It could be supposed that this property explains cytostatic activity of compounds. In Table 9 there are presented quantitative data on the affinity to DNA of tested compounds using the fluorescence method and competitive affinity to DNA of bromine ethydine and tested compounds.
# [2] = tested on: human prostate cancer cell line DU145; assay: Cytostatic activity in vitro, prostate cancer DU145; assay type: cell-based; settings: 72 h continuous exposure
# Description: (§1) Table 5 presents activity in vitro of anthrapiridazone derivatives towards three cell lines of prostate cancer, naturally multidrug resistant, in comparison with references doxorubicin, mitoxantrone and taxol.
# [3] = tested on: HL60/VINC; assay: Cytostatic activity in vitro, vincristine-induced resistant subline (MDR-1); assay type: cell-based, human; settings: for RI resistance index HL60/VINC / RI resistance index HL60VINC: IC50(resistant cells)/IC50(sensitive cells); for RI resistance index HL60/VINC: HL60/VINC vs HL60, 72 h; for RI resistance index HL60VINC: 96 h
# Description: (§2) Tables 3 and 4 show cytostatic activity in vitro of 2,6-disubstituted and 2- or 6-monosubstituted (Tab.3), and of 2,5-disubstituted-(Tab.-4) tetracyclic anthrapyridazone derivatives using leukemia cell line HL-60 and the resistant cell sublines with resistance induced by vincristine (MDR-1) or doxorubicin (MRP). Activity of compounds is differentiated depending on their structure, but in all cases resistance indexes are more advantageous in comparison with reference compounds: doxorubicin and mitoxantrone.
# [4] = tested on: HL60/DX; assay: Cytostatic activity in vitro, doxorubicin-induced resistant subline (MRP); assay type: cell-based, human; settings: for RI resistance index HL60/DX: IC50(resistant cells)/IC50(sensitive cells)
# Description: as §2
# [5] = tested on: human prostate cancer cell line PC3; assay: Cytostatic activity in vitro, prostate cancer PC3; assay type: cell-based; settings: 72 h continuous exposure
# Description: as §1
# [6] = tested on: human prostate cancer cell line LNCaP; assay: Cytostatic activity in vitro, prostate cancer LNCaP; assay type: cell-based; settings: 72 h continuous exposure
# Description: as §1
# [7] = tested on: human promyelocytic leukemia cell line HL-60; assay: Cytostatic activity in vitro, HL-60 sensitive line; assay type: cell-based; settings: read-out: HL60 IC50
# Description: as §2
# [8] = 50% inhibition of cell growth after 72 h continuous exposure
# [9] = 96 h continuous exposure, read-out: HL60VINC IC50
Compound,IC50 [1],Kapp relative constant of DNA-compound bonding [1],IC50 [2],IC50 ([3]; 72 h continuous exposure),RI resistance index HL60/VINC [3],IC50 ([4]; 72 h continuous exposure),"RI resistance index HL60/DX ([4]; HL60/DX vs HL60, 72 h)",IC50 [5],IC50 [6],"IC50 [7, 8]","IC50 [3, 9]",RI resistance index HL60VINC [3],IC50 ([4]; 96 h continuous exposure),RI resistance index HL60/DX ([4]; 96 h),IC50 ([7]; 96 h continuous exposure),"IC50 ([2]; Homo sapiens, DU-145)",IC50 ([5]; Homo sapiens),"IC50 ([6]; Homo sapiens, LNCaP)"
"O=C1c2ccccc2C(=O)c2c(NCCNCCO)ccc(NCCNCCO)c21 [Ametantrone, reference compound]",0.049 ± 0.006 µM,2.57e+08 M⁻¹,,,,,,,,,,,,,,,,
"CC(CNc1ccc2c(=O)n(CC(C)N(C)C)nc3c2c1C(=O)c1ccccc1-3)N(C)C (stereo not drawn) [Compound C-123, 2-[2-(Dimethylamino)propyl]-6-{[2-(dimethylamino)propyl]amino}-2,7-dihydro-3H-dibenzo[de,h]cynnoline-3,7-dione]",0.31 ± 0.04 µM,4.04e+07 M⁻¹,0.0256 ± 0.0026 µM,0.058 ± 0.006 µM,6.7,0.827 ± 0.145 µM,95.1,0.127 ± 0.0386 µM,0.0529 ± 0.0121 µM,0.0087 ± 0.0005 µM,,,,,,,,
"CN(C)CCCNc1ccc2c(=O)[nH]nc3c2c1C(=O)c1ccccc1-3 [Compound C-131, 6-[(3-Dimethylamino)propyl]amino-3H-dibenzo[de,h]cynnoline-3,7-dione]",1.63 ± 0.12 µM,7.7e+06 M⁻¹,1.48 ± 0.127 µM,1.01 ± 0.051 µM,0.9,4.47 ± 0.428 µM,3.9,2.83 ± 0.234 µM,0.927 ± 0.092 µM,1.15 ± 0.244 µM,,,,,,,,
"CCN(CC)CCNc1ccc2c(=O)n(CCN(C)C)nc3c2c1C(=O)c1ccccc1-3 [Compound C-155, 2-[2-(Dimethylamino)ethyl]-6-{[(2-diethylamino)ethyl]amino}-2,7-dihydro-3H-dibenzo[de,h]cynnoline-3,7-dione]",0.31 ± 0.01 µM,4.02e+07 M⁻¹,0.0714 ± 0.0216 µM,0.116 ± 0.028 µM,6.1,0.446 ± 0.1 µM,23.5,0.144 ± 0.0327 µM,0.0262 ± 0.0072 µM,0.019 ± 0.004 µM,,,,,,,,
"CN(C)CCn1nc2c3ccccc3c3nn(CCN(C)C)c4ccc(c1=O)c2c34 [Compound C-163, Bis-2,6-[2-(dimethylamino)ethyl]-2,6-dihydro-5H-benzo[h]indazolo[5,4,3-def]cynnoline-5-one]",0.23 ± 0.01 µM,5.57e+07 M⁻¹,0.0218 ± 0.0047 µM,0.048 ± 0.007 µM,1.5,0.33 ± 0.017 µM,10.6,0.122 ± 0.0276 µM,0.0282 ± 0.0074 µM,0.031 ± 0.006 µM,,,,,,,,
"CN(C)CCn1nc2c3c(c(NCCNCCO)ccc3c1=O)C(=O)c1ccccc1-2 [Compound C-165, 2-[2-(Dimethylamino)ethyl]-6-[2-(2-aminoethylamino)ethanolo]-2,7-dihydro-3H-dibenzo[de,h]cynnoline-3,7-dione]",0.37 ± 0.08 µM,3.44e+07 M⁻¹,0.0143 ± 0.0033 µM,0.0308 ± 0.004 µM,14.7,0.706 ± 0.057 µM,336.2,0.0516 ± 0.0124 µM,0.0081 ± 0.001 µM,0.0021 ± 0.0004 µM,,,,,,,,
"CN(C)CCNc1ccc2c(=O)n(CCO)nc3c2c1C(=O)c1ccccc1-3 [Compound C-167, 2-(2-Hydroxyethyl)-6-(2-dimethylamino)ethylamino-2H-dibenzo[de,h]cynnoline-3,7-dione]",2.04 ± 0.07 µM,6.2e+06 M⁻¹,0.294 ± 0.053 µM,0.393 ± 0.045 µM,3.5,1.24 ± 0.206 µM,11.1,0.776 ± 0.045 µM,0.202 ± 0.035 µM,0.111 ± 0.027 µM,,,,,,,,
"CN(C)CCn1nc2c3c(cc(NCCN)cc3c1=O)C(=O)c1ccccc1-2 [Compound C-170, 2-[2-(Dimethylamino)ethyl]-5-(2-aminoetyloamino)-2,7-dihydro-3H-dibenzo[de,h]cynnoline-3,7-dione]",,,,,,,,,,,0.21 ± 0.052 µM,25.6,0.753 ± 0.029 µM,91.9,0.0082 ± 0.001 µM,,,
"CN(C)CCn1nc2c3c(cc(NCCNCc4ccccc4)cc3c1=O)C(=O)c1ccccc1-2 [Compound C-171, 2-[2-(Dimethylamino)ethyl]-5-[(2-benzylamino)ethylamino]-2,7-dihydro-3H-dibenzo[de,h]cynnolino-3,7-dion]",,,,,,,,,,,0.375 ± 0.018 µM,0.9,0.564 ± 0.034 µM,1.4,0.398 ± 0.025 µM,,,
"CCNCCNc1ccc2c(=O)n(CCN(C)C)nc3c2c1C(=O)c1ccccc1-3 [Compound C-180, 2-[2-(Dimethylamino)ethyl]-6-{[2-(ethylamino)ethyl]amino}-2,7-dihydro-3H-dibenzo[de,h]cynnoline-3,7dione]",0.28 ± 0.05 µM,4.53e+07 M⁻¹,0.0226 ± 0.0052 µM,0.0087 ± 0.0004 µM,4.0,0.364 ± 0.036 µM,165.5,0.0752 ± 0.0162 µM,0.011 ± 0.0014 µM,0.0022 ± 0.0001 µM,,,,,,,,
"CC(=O)[C@]1(O)Cc2c(O)c3c(c(O)c2[C@@H](O[C@H]2C[C@H](N)[C@H](O)[C@H](C)O2)C1)C(=O)c1ccccc1C3=O [Idarubicin, reference compound]",0.5 ± 0.06 µM,2.5e+07 M⁻¹,,,,,,,,,,,,,,,,
"CN(C)CCCn1nc2c3c(c(N)ccc3c1=O)C(=O)c1ccccc1-2 [PDZ-3, 2-[3-(Dimethylamino)propyl]-6-amino-2,7-dihydro-3H-dibenzo[de,h]cynnoline-3,7-dione]",1.76 ± 0.12 µM,7.1e+06 M⁻¹,0.725 ± 0.121 µM,0.509 ± 0.054 µM,1.9,0.919 ± 0.089 µM,3.4,0.709 ± 0.163 µM,0.549 ± 0.085 µM,0.269 ± 0.041 µM,,,,,,,,
"Nc1ccc2c(=O)n(CCN3CCOCC3)nc3c2c1C(=O)c1ccccc1-3 [PDZ-4, 2-(2-Morpholinethyl)-6-amino-2,7-dihydro-3H-dibenzo[de,h]cynnoline-3,7-dione]",16.8 ± 0.41 µM,700000 M⁻¹,3.27 ± 0.355 µM,2.55 ± 0.286 µM,1.2,4.71 ± 0.389 µM,2.3,5.11 ± 0.206 µM,2.79 ± 0.276 µM,2.08 ± 0.169 µM,,,,,,,,
"Nc1ccc2c(=O)n(CCN3CCCCC3)nc3c2c1C(=O)c1ccccc1-3 [PDZ-5, 2-[2-(Piperidinamino)ethyl]-6-amino-2,7-dihydro-3H-dibenzo[de,h]-cynnoline-3,7-dione]",1.69 ± 0.1 µM,7.5e+06 M⁻¹,0.538 ± 0.045 µM,0.677 ± 0.029 µM,1.8,1.36 ± 0.135 µM,3.6,0.886 ± 0.17 µM,0.474 ± 0.076 µM,0.382 ± 0.056 µM,,,,,,,,
"CNc1ccc2c(=O)n(CCN(C)C)nc3c2c1C(=O)c1ccccc1-3 [PDZ-7, 2-[2-(Dimethylamino)ethyl]-6-(N-methylamino)-2,7-dihydro-3H-dibenzo[de,h]cynnoline-3,7-dione]",1.85 ± 0.16 µM,6.8e+06 M⁻¹,0.0286 ± 0.0028 µM,0.043 ± 0.002 µM,2.0,0.62 ± 0.062 µM,29.5,0.0805 ± 0.012 µM,0.0654 ± 0.0074 µM,0.021 ± 0.001 µM,,,,,,,,
"CN(C)CCn1nc2c3c(c(NCc4ccccc4)ccc3c1=O)C(=O)c1ccccc1-2 [PDZ-8, 2-[2-(Dimethylamino)ethyl]-6-(N-benzylamino)-2,7-dihydro-3H-dibenzo[de,h]cynnoline-3,7-dione]",7.29 ± 0.28 µM,1.7e+06 M⁻¹,1.22 ± 0.142 µM,0.85 ± 0.093 µM,1.2,4.8 ± 1.33 µM,6.7,1.71 ± 0.125 µM,0.683 ± 0.017 µM,0.719 ± 0.027 µM,,,,,,,,
"CCCCNCCNc1ccc2c(=O)[nH]nc3c2c1C(=O)c1ccccc1-3 [PDZ-9, 6-(2-Butylaminoethylamino)-2,7-dihydro-3H-dibenzo[de,h]cynnoline-3,7-dione]",2.1 ± 0.1 µM,6e+06 M⁻¹,0.558 ± 0.129 µM,0.574 ± 0.012 µM,1.8,1.18 ± 0.094 µM,3.8,1.25 ± 0.206 µM,0.427 ± 0.08 µM,0.311 ± 0.054 µM,,,,,,,,
"CC(=O)O[C@H]1C(=O)[C@@]2(C)[C@H]([C@H](OC(=O)c3ccccc3)[C@]3(O)C[C@H](OC(=O)[C@H](O)[C@@H](NC(=O)c4ccccc4)c4ccccc4)C(C)=C1C3(C)C)[C@]1(OC(C)=O)CO[C@@H]1C[C@@H]2O [Taxol, reference compound]",,,,,,,,,,,,,,,,0.0039 ± 0.0006 µM,0.004 ± 0.0004 µM,0.0012 ± 0.0003 µM
